Assays:
[1] = system: STAT1 near CpG1 in the PD-L1 promoter; assay: ChIP-Seq: binding of STAT1 near CpG1 in the PD-L1 promoter; type: cell-based, human; settings: H358, methylation at PD-L1 promoter LOW; IFNγ stimulation
Method: (§1) NSCLC cell lines were grown to the proper confluency, and treated cells were fixed with 1% formaldehyde for 15 min and quenched with 0.125 M glycine. Chromatin was isolated by the addition of lysis buffer and disruption with a Dounce homogenizer. Lysates were sonicated, and the DNA was sheared to an average length of 300-500 bp. Genomic DNA (Input) was prepared by treating aliquots of chromatin with RNase, proteinase K, and heat for de-crosslinking. Treatment was followed by ethanol precipitation. Pellets of genomic DNA were resuspended and the resulting DNA was quantified on a NanoDrop spectrophotometer. Extrapolation to the original chromatin volume allowed quantitation of the total chromatin yield.
(§2) An aliquot of chromatin (30 μg) was pre-cleared with protein A agarose beads (Invitrogen). […]
(§3) Illumina sequencing libraries were prepared from the ChIP and Input DNAs by the standard consecutive enzymatic steps of end-polishing, dA-addition, and adaptor ligation. After a final PCR amplification step, the resulting DNA libraries were quantified and sequenced on HiSeq 2500 or NexSeq 500. Sequences (50 nt reads, single end or 75 nt reads, single end) were aligned to the human genome (hg19) using the BWA algorithm. […] Peak locations were determined using the MACS algorithm (v1.4.2.) with a cutoff of pvalue=1×10^−7. […]

[2] = system: STAT3 near CpG1 in the PD-L1 promoter; assay: ChIP-Seq: binding of STAT3 near CpG1 in the PD-L1 promoter; type: cell-based, human; settings: H358, methylation at PD-L1 promoter LOW; IFNγ stimulation
Method: as §1, §2, §3

interferon gamma [IFNg, interferon gamma, used at 1 ng/mL to stimulate cells]
Binding (chIP STAT1) [1]: bind and YES
Binding (chIP STAT3) [2]: bound and YES

From patent US11254987B2, “PD-L1 promoter methylation in cancer” (Genentech, Inc., priority 2015, dated 2022)
